The source of these data is paper PMC7010356, “The thermodynamic profile and molecular interactions of a C(9)-cytisine derivative-binding acetylcholine-binding protein from Aplysia californica” (Acta Crystallographica. Section F, Structural Biology …, 2020).

The target in the test is T1, acetylcholine-binding protein (AcAChBP) (Aplysia californica, UniProt Q8WSF8).
T1 construct: recombinant AcAChBP with a C-terminal Tobacco etch virus cleavage site and His6 tag; homopentamer
T1 sequence (Q8WSF8 20-236): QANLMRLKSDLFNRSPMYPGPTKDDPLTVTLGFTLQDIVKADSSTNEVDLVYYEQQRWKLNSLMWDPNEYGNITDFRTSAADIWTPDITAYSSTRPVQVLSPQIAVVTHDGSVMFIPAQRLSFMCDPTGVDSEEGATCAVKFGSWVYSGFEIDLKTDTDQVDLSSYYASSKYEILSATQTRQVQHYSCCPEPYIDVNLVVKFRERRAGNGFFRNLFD
In words: ITC and […] Å crystal structure.

As for `O=c1c(CCCO)ccc2n1C[C@@H]1CNC[C@H]2C1` [compound 4, (1R,5S)-9-(3-hydroxypropyl)-1,2,3,4,5,6-hexahydro-1,5-methano-8H-pyrido[1,2a][1,5]diazocin-8-one], binding was characterised by a dissociation constant (Kd) of 53.3 µM.

By Kd is commonly meant the concentration at which binding is half-saturated. A high value points to lower affinity.
